Results: patent US10611765B2, “Pyrrolopyrimidine derivatives as Mps1/TTK kinase inhibitors” (Ohio State Innovation Foundation, priority 2014, dated 2020)

What was measured:
Cal-51 cells (tumor) = assay: Tumor progression in athymic nude mice; format: in vivo; conditions: Cal-51 tumors, i.p. injection in DMSO, five-week study
Experimental: Compound 13 in DMSO was administered to the test mice by i.p. injection. Cal-51 cells were injected to induce tumor growth. At the end of the five-week study, the mice were sacrificed, and the tumors were measured, dissected and weighed (FIGS. 6 and 7).

[1] = molecular target: Mps1 (autophosphorylation) (Homo sapiens, UniProt P33981); assay: biochemical
Experimental: Briefly, the inhibition potency to Mps1 kinase activity was determined by measurement of radioactive phosphotransfer to the specific substrate, Cetn2. The autophosphorylation of Mps1 was also measured using the same method without adding Cetn2 in the kinase assay reaction mixture. […] Mps1 activity was measured using 0.25 ng of recombinant GST-Mps1 protein in 50 mM TrisCl pH 7.5, 0.5 mM DTT, 10 mM MgCl2, 300 μM recombinant Cetn2 and 3 μM ^32P-γ-ATP. […] ATP was added to initiate the kinase assay, incubated at 30° C. for 30 min and five-fold volume of […] was added to quench the reaction. The whole reaction was immobilized on Immobilon-P^SQ PVDF membrane (Millipore) using a dot blotter connected to vacuum line. Each well was washed three times with 300 μL of PBS. The membrane was further washed by soaking in PBS, dried, and exposed overnight to a Phosphor Screen. The image was acquired by the Storm imaging system (Amersham). The density analyses were performed by using Image-J program, and kinetic constants were calculated by GraphPad Prism 5 software. Commercial kinase profiling assays were performed by Reaction Biology Corp., Malvern, Pa.

Mps1 (autophosphorylation), sequence (P33981 whole entry): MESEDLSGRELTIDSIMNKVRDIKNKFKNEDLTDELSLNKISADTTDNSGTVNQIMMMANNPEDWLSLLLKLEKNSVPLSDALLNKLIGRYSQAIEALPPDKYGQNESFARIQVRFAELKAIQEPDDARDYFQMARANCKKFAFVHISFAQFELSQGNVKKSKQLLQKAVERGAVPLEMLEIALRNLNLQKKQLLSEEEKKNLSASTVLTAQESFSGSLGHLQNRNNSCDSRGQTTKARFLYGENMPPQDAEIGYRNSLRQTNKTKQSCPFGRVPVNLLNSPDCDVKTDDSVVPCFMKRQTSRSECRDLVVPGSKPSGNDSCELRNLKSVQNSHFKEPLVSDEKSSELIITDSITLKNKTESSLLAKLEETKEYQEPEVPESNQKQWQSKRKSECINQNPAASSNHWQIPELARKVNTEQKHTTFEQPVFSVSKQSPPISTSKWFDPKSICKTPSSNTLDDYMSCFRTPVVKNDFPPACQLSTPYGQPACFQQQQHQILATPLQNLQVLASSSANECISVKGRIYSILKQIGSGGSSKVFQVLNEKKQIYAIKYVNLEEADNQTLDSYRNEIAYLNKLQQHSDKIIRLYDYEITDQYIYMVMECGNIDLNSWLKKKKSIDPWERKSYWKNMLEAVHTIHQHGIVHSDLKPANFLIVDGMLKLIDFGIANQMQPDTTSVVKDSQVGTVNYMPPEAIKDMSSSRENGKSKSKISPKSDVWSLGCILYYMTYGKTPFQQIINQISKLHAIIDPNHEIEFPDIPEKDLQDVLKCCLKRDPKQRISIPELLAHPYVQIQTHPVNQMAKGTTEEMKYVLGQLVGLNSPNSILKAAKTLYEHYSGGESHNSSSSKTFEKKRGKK

With `COc1cc(N2CCOCC2)ccc1Nc1nc(NC2CCCCC2)c2cc[nH]c2n1` [Compound 13, N4-cyclohexyl-N2-(2-methoxy-4-morpholinophenyl)-7H-pyrrolo[2,3-d]pyrimidine-2,4-diamine] the tumor progression (Cal-51 cells (tumor)) was “slowed the tumor progression” and the IC50 [1] was 312 nM.
